According to patent US11224565B2, “N-acyldipeptide derivatives and their uses” (NeoStrata Company, Inc., priority 2011, dated 2022):
Peptide text beside a SMILES is read from it.

Assays:
Type in all cases: in vivo, human
Conditions in all cases: efficacy grade
[1] = test system: Aging related changes of skin, nail and hair; test: Summary of test results in volunteer subjects: aging related changes
Excerpt: (§1) In one embodiment, a composition for topical application to test its therapeutic effect was formulated by dissolving a bioactive dipeptide derivative of the present invention in a solution prepared from 40 parts water, 40 parts ethanol and 20 parts propylene glycol by volume (WEP442). In another embodiment, a composition was formulated by dissolving a bioactive dipeptide derivative of the present invention in a non-aqueous solution prepared from 80 parts ethanol and 20 parts propylene glycol by volume (EP82). In yet another embodiment, a composition was formulated first by dissolving a bioactive dipeptide derivative of the present invention in a solution prepared from 80 parts water and 20 parts propylene glycol by volume (WP82), and the solution thus prepared was mixed with an oil-in-water emulsion or cream. In another embodiment, the volunteer subject topically applied the test compositions containing N-acyldipeptide derivatives of the present invention on involved skin or lesions once or twice daily for several weeks or until the involved lesions completely cleared and clinically changed to normal skin. As a control study, the subject also topically applied a vehicle control composition on the involved skin or lesions twice daily for the same period. In yet another embodiment, the volunteer subject topically applied once or twice daily the test compositions containing N-acyldipeptide derivatives of the present invention on the skin site above arthritic joints or painful muscles to provide therapeutic effects for the systemic disorders via topical administration. Some test results are summarized as follows. AG: Aging related changes of skin, nail and hair

[2] = test system: Disturbed keratinization; test: Summary of test results in volunteer subjects: disturbed keratinization
Excerpt: as §1, with “DK: Disturbed keratinization” for “AG: Aging related changes of skin, nail and hair”

[3] = test system: Deranged immune disorders and inflammation; test: Summary of test results in volunteer subjects: deranged immune disorders and inflammation
Excerpt: as §1, with “DI: Deranged immune disorders” for “AG: Aging related changes of skin, nail”, “inflammation” for “hair”

[4] = test system: Nerve disorders; test: Summary of test results in volunteer subjects: nerve disorders
Excerpt: as §1, with “ND: Nerve disorders” for “AG: Aging related changes of skin, nail and hair”

## N,N′-diAc-βAla-L-His-NH2
[1]
  AG: 2+ (2+: 50% Efficacy)
[2]
  DK: 2+ (2+: 50% Efficacy)
[3]
  DI: 2+ (2+: 50% Efficacy)
[4]
  ND: 2+ (2+: 50% Efficacy)

## CC[C@H](C)[C@H](NC(C)=O)C(=O)NCC(=O)O [N-Ac-L-Ile-Gly-OH] (Ac-Ile-Gly-OH)
[1]
  AG: 2+ (2+: 50% Efficacy)
[2]
  DK: 2+ (2+: 50% Efficacy)
[3]
  DI: 3+ (3+: 75% Efficacy)
[4]
  ND: 4+ (4+: 95-100% Efficacy)

## CC(=O)Nc1ccccc1C(=O)NCC(N)=O [N-Ac-Abz-Gly-NH2]
[1]
  AG: 2+ (2+: 50% Efficacy)
[2]
  DK: 2+ (2+: 50% Efficacy)
[3]
  DI: 3+ (3+: 75% Efficacy)
[4]
  ND: 3+ (3+: 75% Efficacy)

## N-Ac-L-Tyr-L-Hpg-NH2
[1]
  AG: 2+ (2+: 50% Efficacy)
[2]
  DK: 2+ (2+: 50% Efficacy)
[3]
  DI: 2+ (2+: 50% Efficacy)
[4]
  ND: 2+ (2+: 50% Efficacy)

## CC[C@H](C)[C@H](NC(=O)[C@@H](NC(C)=O)[C@@H](C)CC)C(N)=O [N-Ac-L-Ile-L-Ile-NH2] (Ac-Ile-Ile-NH2)
[1]
  AG: 2+ (2+: 50% Efficacy)
[2]
  DK: 3+ (3+: 75% Efficacy)
[3]
  DI: 3+ (3+: 75% Efficacy)
[4]
  ND: 4+ (4+: 95-100% Efficacy)

## CC(=O)N[C@H](C(=O)NCC(=O)O)C(C)C [N-Ac-L-Val-Gly-OH] (Ac-Val-Gly-OH)
[1]
  AG: 2+ (2+: 50% Efficacy)
[2]
  DK: 2+ (2+: 50% Efficacy)
[3]
  DI: 3+ (3+: 75% Efficacy)
[4]
  ND: 4+ (4+: 95-100% Efficacy)

## CC(=O)N[C@@H](CC(C)C)C(=O)N[C@@H](C)C(=O)O [N-Ac-L-Leu-L-Ala-OH] (Ac-Leu-Ala-OH)
[1]
  AG: 2+ (2+: 50% Efficacy)
[2]
  DK: 2+ (2+: 50% Efficacy)
[3]
  DI: 3+ (3+: 75% Efficacy)
[4]
  ND: 3+ (3+: 75% Efficacy)

## CC(=O)NCCC(=O)N[C@@H](Cc1c[nH]cn1)C(N)=O [N-Ac-βAla-L-His-NH2]
[1]
  AG: 2+ (2+: 50% Efficacy)
[2]
  DK: 2+ (2+: 50% Efficacy)
[3]
  DI: 2+ (2+: 50% Efficacy)
[4]
  ND: 2+ (2+: 50% Efficacy)

## CC[C@H](C)[C@H](NC(C)=O)C(=O)N[C@@H](C)C(N)=O [N-Ac-L-Ile-L-Ala-NH2] (Ac-Ile-Ala-NH2)
[1]
  AG: 2+ (2+: 50% Efficacy)
[2]
  DK: 2+ (2+: 50% Efficacy)
[3]
  DI: 4+ (4+: 95-100% Efficacy)
[4]
  ND: 4+ (4+: 95-100% Efficacy)

## CC[C@H](C)[C@H](NC(C)=O)C(=O)NCC(N)=O [N-Ac-L-Ile-Gly-NH2] (Ac-Ile-Gly-NH2)
[1]
  AG: 3+ (3+: 75% Efficacy)
[2]
  DK: 3+ (3+: 75% Efficacy)
[3]
  DI: 4+ (4+: 95-100% Efficacy)
[4]
  ND: 4+ (4+: 95-100% Efficacy)

## CC(=O)N[C@@H](CS)C(=O)N[C@@H](CS)C(=O)O [N-Ac-L-Cys-L-Cys-OH] (Ac-Cys-Cys-OH)
[1]
  AG: 3+ (3+: 75% Efficacy)
[2]
  DK: 2+ (2+: 50% Efficacy)
[3]
  DI: 2+ (2+: 50% Efficacy)
[4]
  ND: 2+ (2+: 50% Efficacy)

## CC(=O)N[C@@H](CC(N)=O)C(=O)NCC(N)=O [N-Ac-L-Asn-Gly-NH2] (Ac-Asn-Gly-NH2)
[1]
  AG: 2+ (2+: 50% Efficacy)
[2]
  DK: 2+ (2+: 50% Efficacy)
[3]
  DI: 2+ (2+: 50% Efficacy)
[4]
  ND: 2+ (2+: 50% Efficacy)

## CCC(=O)N[C@@H](CC(C)C)C(=O)NCC(=O)O [N-Pr-L-Leu-Gly-OH] (HELM PEPTIDE1{[CCC(=O)[*:2]].L.G}$$$$V2.0)
[1]
  AG: 2+ (2+: 50% Efficacy)
[2]
  DK: 2+ (2+: 50% Efficacy)
[3]
  DI: 3+ (3+: 75% Efficacy)
[4]
  ND: 3+ (3+: 75% Efficacy)

## CC(=O)NCC(=O)NCC(N)=O [N-Ac-Gly-Gly-NH2]
[1]
  AG: 2+ (2+: 50% Efficacy)
[2]
  DK: 2+ (2+: 50% Efficacy)
[3]
  DI: 2+ (2+: 50% Efficacy)
[4]
  ND: 2+ (2+: 50% Efficacy)

## CC(=O)N[C@@H](CCC(N)=O)C(=O)NCC(N)=O [N-Ac-L-Gln-Gly-NH2] (Ac-Gln-Gly-NH2)
[1]
  AG: 2+ (2+: 50% Efficacy)
[2]
  DK: 2+ (2+: 50% Efficacy)
[3]
  DI: 2+ (2+: 50% Efficacy)
[4]
  ND: 2+ (2+: 50% Efficacy)

## CC(=O)N[C@H](C(=O)N[C@@H](Cc1ccc(O)cc1)C(N)=O)C(C)C [N-Ac-L-Val-L-Tyr-NH2] (Ac-Val-Tyr-NH2)
[1]
  AG: 2+ (2+: 50% Efficacy)
[2]
  DK: 2+ (2+: 50% Efficacy)
[3]
  DI: 2+ (2+: 50% Efficacy)
[4]
  ND: 2+ (2+: 50% Efficacy)

## CC(=O)N[C@H](C(=O)NCC(N)=O)C(C)C [N-Ac-L-Val-Gly-NH2] (Ac-Val-Gly-NH2)
[1]
  AG: 2+ (2+: 50% Efficacy)
[2]
  DK: 2+ (2+: 50% Efficacy)
[3]
  DI: 4+ (4+: 95-100% Efficacy)
[4]
  ND: 4+ (4+: 95-100% Efficacy)

## CC(=O)N[C@@H](CC(C)C)C(=O)N[C@@H](Cc1ccc(O)cc1)C(N)=O [N-Ac-L-Leu-L-Tyr-NH2] (Ac-Leu-Tyr-NH2)
[1]
  AG: 2+ (2+: 50% Efficacy)
[2]
  DK: 2+ (2+: 50% Efficacy)
[3]
  DI: 2+ (2+: 50% Efficacy)
[4]
  ND: 2+ (2+: 50% Efficacy)

## CC(=O)NCC(=O)N1CCC[C@H]1C(N)=O [N-Ac-Gly-L-Pro-NH2] (Ac-Gly-Pro-NH2)
[1]
  AG: 2+ (2+: 50% Efficacy)
[2]
  DK: 2+ (2+: 50% Efficacy)
[3]
  DI: 2+ (2+: 50% Efficacy)
[4]
  ND: 2+ (2+: 50% Efficacy)

## CC(=O)N[C@@H](Cc1c[nH]c2ccccc12)C(=O)N[C@@H](Cc1c[nH]c2ccccc12)C(N)=O [N-Ac-L-Trp-L-Trp-NH2] (Ac-Trp-Trp-NH2)
[1]
  AG: 2+ (2+: 50% Efficacy)
[2]
  DK: 2+ (2+: 50% Efficacy)
[3]
  DI: 2+ (2+: 50% Efficacy)
[4]
  ND: 2+ (2+: 50% Efficacy)

## CC(=O)N[C@@H](CO)C(=O)NCC(N)=O [N-Ac-L-Ser-Gly-NH2] (Ac-Ser-Gly-NH2)
[1]
  AG: 2+ (2+: 50% Efficacy)
[2]
  DK: 2+ (2+: 50% Efficacy)
[3]
  DI: 2+ (2+: 50% Efficacy)
[4]
  ND: 2+ (2+: 50% Efficacy)

## CC(=O)N[C@@H](CC(C)C)C(=O)N[C@@H](C)C(N)=O [N-Ac-L-Leu-L-Ala-NH2] (Ac-Leu-Ala-NH2)
[1]
  AG: 3+ (3+: 75% Efficacy)
[2]
  DK: 3+ (3+: 75% Efficacy)
[3]
  DI: 4+ (4+: 95-100% Efficacy)
[4]
  ND: 4+ (4+: 95-100% Efficacy)

## CCOC(=O)[C@H](Cc1ccc(O)cc1)NC(=O)[C@H](Cc1ccc(O)cc1)NC(C)=O [N-Ac-L-Tyr-L-Tyr-OEt] (HELM PEPTIDE1{[ac].Y.Y.[CCO[*:1]]}$$$$V2.0)
[1]
  AG: 2+ (2+: 50% Efficacy)
[2]
  DK: 2+ (2+: 50% Efficacy)
[3]
  DI: 2+ (2+: 50% Efficacy)
[4]
  ND: 2+ (2+: 50% Efficacy)

## CC[C@H](C)[C@H](NC(C)=O)C(=O)N[C@@H](Cc1ccc(O)cc1)C(N)=O [N-Ac-L-Ile-L-Tyr-NH2] (Ac-Ile-Tyr-NH2)
[1]
  AG: 2+ (2+: 50% Efficacy)
[2]
  DK: 2+ (2+: 50% Efficacy)
[3]
  DI: 2+ (2+: 50% Efficacy)
[4]
  ND: 2+ (2+: 50% Efficacy)
